Numbered stars: 1 amine (or outer) side, 2 acyl side, 3 side chain; on linkers, the order of the positions; unused ones are H or OH. Square brackets hold non-standard residues; d marks the D form. Side chains are listed from the residue outwards. Peptide text beside a SMILES is read from it. * marks the point of attachment. C18 diacid = O=C(O)CCCCCCCCCCCCCCCCC(=O)*; γGlu = O=C(O)[C@H](CCC(=O)[*:2])N[*:1]; AEEA = NCCOCCOCC(=O)O; Aib = CC(C)(N)C(=O)O
How the values were obtained:
human GLP-1 receptor [1] = target: T1, human GLP-1 receptor (Homo sapiens, UniProt P43220); assay: GLP-1 receptor binding, 125I-GLP-1 displacement SPA on isolated membranes; settings: displacement of 125I-GLP-1 from membranes; read-out: IC50 GLP-1R
T1 construct: expressed in transfected cells; host or cells: BHK cells (parent BHKTS13), clone FCW467-12A/KZ10-1, with CRE luciferase
T1 sequence (P43220 24-463): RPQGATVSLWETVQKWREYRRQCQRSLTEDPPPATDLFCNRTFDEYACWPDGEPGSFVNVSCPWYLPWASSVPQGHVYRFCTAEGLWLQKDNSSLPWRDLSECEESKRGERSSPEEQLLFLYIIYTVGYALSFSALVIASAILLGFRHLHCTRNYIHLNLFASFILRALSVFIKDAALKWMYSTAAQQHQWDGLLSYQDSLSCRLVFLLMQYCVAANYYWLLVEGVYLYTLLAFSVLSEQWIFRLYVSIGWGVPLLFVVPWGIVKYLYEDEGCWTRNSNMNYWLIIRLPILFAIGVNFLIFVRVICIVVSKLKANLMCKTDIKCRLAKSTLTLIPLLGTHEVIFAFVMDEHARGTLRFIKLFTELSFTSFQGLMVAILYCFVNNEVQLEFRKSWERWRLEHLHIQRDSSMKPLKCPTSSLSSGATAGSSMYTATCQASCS
Description: The purpose of this assay was to test the in vitro receptor binding activity of the glucagon derivatives of the invention. The receptor binding is a measure of affinity of a compound for the human GLP-1 receptor.
The receptor binding of each compound to the human GLP-1 receptor was measured in a displacement binding assay. In this type of assay a labelled ligand (in this case 125I-GLP-1) is bound to the receptor. Each derivative was added in a series of concentrations to isolated membranes containing the human GLP-1 receptor and displacement of the labelled ligand was monitored. The receptor binding was reported as the concentration at which half of the labelled ligand was displaced from the receptor, the IC50 value.
In order to test the binding of the derivatives to albumin, the assay may be performed in a very low concentration of serum albumin (max. 0.001% final assay concentration) as well as in the presence of a higher concentration of serum albumin (2.0% final assay concentration). An increase of the IC50 value, in the presence of serum albumin indicates an affinity to serum albumin and represents a method to predict a protracted pharmacokinetic profile of the test substance in animal models.
The following chemicals were used in the assay: DMEM w/o phenol red (Gibco 11880-028), Pen/strep (Invitrogen 15140-122), G418 (Invitrogen 10131-027), 1 M Hepes (Gibco 15630), EDTA (Invitrogen 15575-038), PBS (Invitrogen 14190-094), fetal calf serum (Invitrogen 16140-071), EGTA, MgCl2 (Merck 1.05832.1000), Tween 20 (Amresco 0850C335), SPA particles (wheat germ agglutinin (WGA) SPA beads, Perkin Elmer RPNQ0001), [125I]-GLP-1]-(7-36)NH2 (produced in-house), OptiPlate™-96 (Perkin Elmer).
Buffer 1 consisted of 20 mM Na-HEPES plus 10 mM EDTA and pH was adjusted to 7.4.
Buffer 2 consisted of 20 mM Na-HEPES plus 0.1 mM EDTA and pH was adjusted to 7.4.
Assay buffer consisted of 50 mM HEPES supplemented with 5 mM EGTA, 5 mM MgCl2, 0.005% Tween 20 and pH was adjusted to 7.4.
The cells used in this assay (clone FCW467-12A) were BHK cells with BHKTS13 as a parent cell line. The cells express the human GLP-1 receptor.
The cells were grown at 5% CO2 in DMEM, 10% fetal calf serum, 1% Pen/Strep (Penicillin/Streptomycin) and 1.0 mg/ml of the selection marker G418. To make a membrane preparation the cells were grown to approximately 80% confluence. The cells were washed twice in phosphate-buffered saline and harvested. The cells were pelleted using a brief centrifugation and the cell pellet was kept on ice. The cell pellet was homogenised with ULTRA-THURRAX dispersing instrument for 20-30 sec in a suitable amount of buffer 1 (e.g. 10 ml). The homogenate was centrifuged for 15 min. The pellet was re-suspended (homogenised) in 10 ml buffer 2 and centrifuged. This step was repeated once more. The resulting pellet was re-suspended in buffer 2 and the protein concentration was determined. The membranes were aliquoted and stored at minus 80° C.
1. For the receptor binding assay, 50 μl of the assay buffer was added to each well of an assay plate.
2. Test compounds were serially diluted to give the following concentrations: 8×10EE-7 M, 8×10EE-8 M, 8×10EE-9 M, 8×10EE-10 M, 8×10EE-11 M, 8×10EE-12 M and 8×10EE-13 M. Twenty-five μl were added to appropriate wells in the assay plate.
3. Cell membrane aliquots were thawed and diluted to their working concentration. Fifty μl were added to each well in the assay plate.
4. WGA SPA beads were suspended in assay buffer at 20 mg/ml. The suspension was diluted to 10 mg/ml in assay buffer just prior to addition to the assay plate. Fifty μl were added to each well in the assay plate.
5. The incubation was started by adding 25 μl of 480 pM solution of [125I]-GLP-1]-(7-36)NH2 to each well of the assay plate. A 25 μl aliquot was reserved for measuring total counts/well.
6. The assay plate was incubated for 2 h at 30° C.
7. The assay plate was centrifuged for 10 min.
8. The assay plate was read in a Perkin Elmer TopCount NXT instrument. […]

human GLP-1 receptor [2] = target: T1, human GLP-1 receptor; assay: GLP-1 receptor potency, CRE luciferase reporter gene assay in BHK cells; type: cell-based; settings: BHK cells expressing human GLP-1 receptor, read-out: EC50 GLP-1R
Description: The purpose of this example was to test the potency, of the glucagon derivatives of the invention, in vitro. The in vitro potency is the measure of human GLP-1 receptor or glucagon receptor activation, respectively, in a whole cell assay.
In vitro potency was determined by measuring the response of human GLP-1 or glucagon receptor, respectively, in a reporter gene assay. The assay was performed in a stably transfected BHK cell line that expresses either the human GLP-1 receptor or the human glucagon receptor and contains the DNA for the cAMP response element (CRE) coupled to a promoter and the gene for firefly luciferase (CRE luciferase). […] When assay incubation was completed, the luciferase substrate (luciferin) was added and the enzyme converted luciferin to oxyluciferin and produces bioluminescence. The luminescence was measured as the readout for the assay.
The cells used in this assay (clone FCW467-12A/KZ10-1) were BHK cells with BHKTS13 as a parent cell line. The cells were derived from a clone (FCW467-12A) that expresses the human GLP-1 receptor and were established by further transfection with
CRE luciferase to obtain the current clone.
The cells were cultured at 5% CO2 in DMEM medium with 10% FBS, 1×GlutaMAX, 1 mg/ml G418, 240 nM MTX (methotrexate) and 1% pen/strep (penicillin/streptomycin). They were aliquoted and stored in liquid nitrogen. Before each assay, an aliquot was taken up and washed three times in PBS before being suspended at the desired concentration in assay medium. For 96-well plates the suspension was made to give a final concentration of 5×10EE3 cells/well.
The following chemicals were used in the assay: Pluronic F-68 (10%) (Gibco 2404), ovalbumin (Sigma A5503), DMEM w/o phenol red (Gibco 11880-028), 1 M Hepes (Gibco 15630), Glutamax 100× (Gibco 35050) and steadylite plus (PerkinElmer 6016757).
Assay Medium consisted of DMEM w/o phenol red, 10 mM Hepes, lx GlutaMAX, 2% Ovalbumin and 0.2% Pluronic F-68.
Cell stocks were thawed in a 37° C. water bath. Cells were washed three times in PBS. The cells were counted and adjusted to 5×10EE3 cells/50 μl (1×10EE5 cells/ml) in Assay Medium. A 50 μl aliquot of cells was transferred to each well in the assay plate.
Stocks of the test compounds and reference compounds were diluted to a concentration of […] in Assay Medium. Compounds were diluted 10-fold to give the following concentrations: 2×10EE-6 M, 2×10EE-7 M, 2×10EE-8 M; 2×10EE-9 M, 2×10EE-10 M, 2×10EE-11 M, 2×10EE-12 M and 2×10EE-13 M. For each compound a blank assay medium control was also included.
A 50 μl aliquot of compound or blank was transferred from the dilution plate to the assay plate. Compounds were tested at the following final concentrations: 1×10EE-6 M, 1×10EE-7 M, 1×10EE-8 M; 1×10EE-9 M, 1×10EE-10 M, 1×10EE-11 M and 1×10EE-12 M and 1×10EE-13 M.
The assay plate was incubated for 3 h in a 5% CO2 incubator at 37° C. The assay plate was removed from the incubator and allowed to stand at room temperature for 15 min. A 100 μl aliquot of steadylite plus reagent was added to each well of the assay plate (reagent is light sensitive). Each assay plate was covered with aluminum foil to protect it from light and shaken for 30 min at room temperature. Each assay plate was read in a Perkin Elmer TopCount NXT instrument.
The data from the TopCount instrument was transferred to GraphPad Prism software. The software performed a non-linear regression (log(agonist) vs response-Variable slope (four parameter)). EC50 values were calculated by the software and reported in pM.

| Structure (SMILES) | IC50 (human GLP-1 receptor [1]) [nM] | EC50 (human GLP-1 receptor [2]) [nM] |
| --- | --- | --- |
| CC(C)C[C@H](NC(=O)[C@H](Cc1ccc(O)cc1)NC(=O)[C@H](CCCCN)NC(=O)[C@H](CO)NC(=O)[C@H](CC(C)C)NC(=O)[C@H](CC(=O)O)NC(=O)[C@H](CO)NC(=O)[C@@H](NC(=O)[C@H](Cc1ccccc1)NC(=O)[C@@H](NC(=O)CNC(=O)[C@H](CCC(N)=O)NC(=O)C(C)(C)NC(=O)[C@@H](N)Cc1c[nH]cn1)[C@@H](C)O)[C@@H](C)O)C(=O)N[C@@H](CCC(=O)O)C(=O)N[C@@H](CO)C(=O)N[C@@H](CCCNC(=N)N)C(=O)N[C@@H](CCCNC(=N)N)C(=O)N[C@@H](C)C(=O)N[C@@H](CCCNC(=N)N)C(=O)N[C@@H](CC(=O)O)C(=O)N[C@@H](Cc1ccccc1)C(=O)N[C@H](C(=O)N[C@@H](CCC(N)=O)C(=O)N[C@@H](Cc1c[nH]c2ccccc12)C(=O)N[C@@H](CC(C)C)C(=O)N[C@@H](CC(C)C)C(=O)N[C@@H](CCCCNC(=O)COCCOCCNC(=O)COCCOCCNC(=O)CC[C@H](NC(=O)CC[C@H](NC(=O)CC[C@H](NC(=O)CCCCCCCCCCCCCCCCC(=O)O)C(=O)O)C(=O)O)C(=O)O)C(=O)N[C@H](C(N)=O)[C@@H](C)O)C(C)C [Example 57, N^ε28-[2-[2-[2-[(2-[2-[2-[[(4S)-4-carboxy-4-[[(4S)-4-carboxy-4-[[(4S)-4-carboxy-4-(17-carboxyheptadecanoylamino)butanoyl]amino]butanoyl]amino]butanoyl]amino]ethoxy]ethoxy]acetyl]amino]ethoxy]ethoxy]acetyl]-[Aib2,Leu10,Glu15,Arg20,Leu27,Lys28]-Glucagon amide] (H-H[Aib]QGTFTSDLSKYLESRRARDFVQWLLK([AEEA-AEEA-γGlu-γGlu-γGlu-C18 diacid])T-NH2; N-terminus assumed) | 0.2 | 0.003 |
| CC(C)C[C@H](NC(=O)[C@H](Cc1ccc(O)cc1)NC(=O)[C@H](CCCNC(=N)N)NC(=O)[C@H](CO)NC(=O)[C@H](CC(C)C)NC(=O)[C@H](CC(=O)O)NC(=O)[C@H](CO)NC(=O)[C@@H](NC(=O)[C@H](Cc1ccccc1)NC(=O)[C@@H](NC(=O)CNC(=O)[C@H](CCC(N)=O)NC(=O)C(C)(C)NC(=O)[C@@H](N)Cc1c[nH]cn1)[C@@H](C)O)[C@@H](C)O)C(=O)N[C@@H](CC(=O)O)C(=O)N[C@@H](C)C(=O)N[C@@H](CCCNC(=N)N)C(=O)N[C@@H](CCCNC(=N)N)C(=O)N[C@@H](C)C(=O)N[C@@H](CCC(N)=O)C(=O)N[C@@H](CC(=O)O)C(=O)N[C@@H](Cc1ccccc1)C(=O)N[C@H](C(=O)N[C@@H](CCC(N)=O)C(=O)N[C@@H](Cc1c[nH]c2ccccc12)C(=O)N[C@@H](CC(C)C)C(=O)N[C@@H](CC(C)C)C(=O)N[C@@H](CCCCNC(=O)COCCOCCNC(=O)COCCOCCNC(=O)CC[C@H](NC(=O)CC[C@H](NC(=O)CC[C@H](NC(=O)CCCCCCCCCCCCCCCCC(=O)O)C(=O)O)C(=O)O)C(=O)O)C(=O)N[C@H](C(N)=O)[C@@H](C)O)C(C)C [Example 64, N^ε28-[2-[2-[2-[[2-[2-[2-[[(4S)-4-carboxy-4-[[(4S)-4-carboxy-4-[[(4S)-4-carboxy-4-(17-carboxyheptadecanoylamino)butanoyl]amino]butanoyl]amino]butanoyl]amino]ethoxy]ethoxy]acetyl]amino]ethoxy]ethoxy]acetyl]-[Aib2,Leu10,Arg12,Ala16,Leu27,Lys28]-Glucagon amide] (H-H[Aib]QGTFTSDLSRYLDARRAQDFVQWLLK([AEEA-AEEA-γGlu-γGlu-γGlu-C18 diacid])T-NH2; N-terminus assumed) | 0.9 | 0.003 |
